Measured values reported in patent publication US11925629B2, “Heterocyclic inhibitors of ERK1 and ERK2 and their use in the treatment of cancer” (Asana Biosciences, LLC, priority 2015, dated 2024).
pIC50: −log10 of the molar value. Like-named read-outs stand apart in the source and are kept apart here.

Columns and labels:
Assay type in all cases: cell-based, human
[1] = tested on: phosphorylation of RSK1(S380) (the downstream target of ERK1/2); assay: Phospho-RSK1(S380) ELISA assay in HT-29 cells; settings: Homo sapiens, HT-29, HT29 cells, read-out: Mechanistic Cell Assay RSK1 Phos HT29 IC50
In short: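 HT-29 colorectal carcinoma cells (B-RafV600E), plated overnight at 37° C./5% CO2, were treated with compound dilutions for 2 h. Lysates were analysed by phospho-RSK1(Ser380) sandwich ELISA with absorbance at 450 nm. IC50 came from a sigmoidal variable-slope dose-response fit.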

[2] = tested on: HT-29 (colorectal carcinoma, B-RafV600E) cells; assay: Cell proliferation (Alamar Blue) assay, HT-29; settings: Homo sapiens, HT-29, HT29 cells
In short: (§1)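 Cells seeded at 5000/well and allowed 16-24 h at 37° C./5% CO2, then exposed to 3-fold serial dilutions (typically 0.0005 to 10 uM) for 72 h. Viability read by Alamar Blue (1×, 1-3 h) fluorescence at 540/590 nm; IC50 from variable-slope sigmoidal fit.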

[3] = tested on: HCT116 (colorectal carcinoma, K Ras G13D) cells; assay: Cell proliferation (Alamar Blue) assay, HCT116; settings: Homo sapiens, HCT-116, HCT116 cells
In short: as §1

Row | SMILES | pIC50 ([1]; phospho-RSK1(S380)) | pIC50 [2] | pIC50 [3] | pIC50 [1]
1 | Cc1cnc(NC2CCNCC2)nc1-n1cnc(C(=O)NC(CO)c2cccc(Cl)c2)c1 (stereo not drawn) [Example 214, N-(1-(3-chlorophenyl)-2-hydroxyethyl)-1-(5-methyl-2-(piperidin-4-ylamino)pyrimidin-4-yl)-1H-imidazole-4-carboxamide] | < 5.60 | < 5.60 | < 5.60 | 
2 | Cc1cnc(Nc2ccc(C3CCNCC3)cc2)nc1-n1ccc(C(=O)NC(CO)c2cccc(Cl)c2)c1 (stereo not drawn) [Example 215, N-(1-(3-chlorophenyl)-2-hydroxyethyl)-1-(5-methyl-2-((4-(piperidin-4-yl)phenyl)amino)pyrimidin-4-yl)-1H-pyrrole-3-carboxamide] | 5.60 to 6.30 | 6.30 to 6.60 | < 5.60 | 
3 | Cc1cnc(Nc2ccc(C3CCNCC3)c(F)c2)nc1-n1ccc(C(=O)NC(CO)c2cccc(Cl)c2)c1 (stereo not drawn) [Example 216, N-(1-(3-chlorophenyl)-2-hydroxyethyl)-1-(2-((3-fluoro-4-(piperidin-4-yl)phenyl)amino)-5-methylpyrimidin-4-yl)-1H-pyrrole-3-carboxamide] | 5.60 to 6.30 | 6.30 to 6.60 | 5.60 to 6.30 | 
4 | CC[C@@H](CO)Nc1ncc(C)c(-n2ccc(C(=O)N[C@H](CO)c3cccc(Cl)c3)c2)n1 [Example 219, N-((S)-1-(3-chlorophenyl)-2-hydroxyethyl)-1-(2-(((S)-1-hydroxybutan-2-yl)amino)-5-methylpyrimidin-4-yl)-1H-pyrrole-3-carboxamide] | 6.30 to 6.60 | 6.60 to 7.00 | 5.60 to 6.30 | 
5 | CC[C@@H](CO)Nc1ncc(C)c(-n2cnc(C(=O)N[C@H](CO)c3cccc(Cl)c3)c2)n1 [Example 220, N-((S)-1-(3-chlorophenyl)-2-hydroxyethyl)-1-(2-(((S)-1-hydroxybutan-2-yl)amino)-5-methylpyrimidin-4-yl)-1H-imidazole-4-carboxamide] | 6.30 to 6.60 | 6.60 to 7.00 | 5.60 to 6.30 | 
6 | Cc1cnc(N[C@H]2CCOC2)nc1-n1cnc(C(=O)NCc2cccc(Cl)c2CO)c1 [Example 270] | 6.60 to 7.00 | ≥ 7.00 | ≥ 7.00 | 
7 | Cc1cnc(NC2CCOCC2)nc1-n1cnc(C(=O)N[C@@H](CN)c2cc(F)cc(Cl)c2)c1 [Example 276, (R)-N-(2-amino-1-(3-chloro-5-fluorophenyl)ethyl)-1-(5-methyl-2-((tetrahydro-2H-pyran-4-yl)amino)pyrimidin-4-yl)-1H-imidazole-4-carboxamide] | 6.60 to 7.00 | 6.30 to 6.60 | 5.60 to 6.30 | 
8 | Cc1cnc(Nc2ccnn2C)nc1-n1cnc(C(=O)N[C@H](CO)c2cccc(Cl)c2)c1 [Example 277, (S)-N-(1-(3-chlorophenyl)-2-hydroxyethyl)-1-(5-methyl-2-((1-methyl-1H-pyrazol-5-yl)amino)pyrimidin-4-yl)-1H-imidazole-4-carboxamide] | 5.60 to 6.30 | 6.30 to 6.60 | 6.30 to 6.60 | 
9 | Cc1cnc(Nc2ccnn2C)nc1-n1cnc(C(=O)N[C@H](CN)c2cccc(Cl)c2)c1 [Example 280, (S)-N-(2-amino-1-(3-chlorophenyl)ethyl)-1-(5-methyl-2-((1-methyl-1H-pyrazol-5-yl)amino)pyrimidin-4-yl)-1H-imidazole-4-carboxamide] | ≥ 7.00 | ≥ 7.00 | ≥ 7.00 | 
10 | Cc1cnc(NC2CCOCC2)nc1-n1cnc(C(=O)NCc2nccs2)c1 [Example 281, 1-(5-methyl-2-((tetrahydro-2H-pyran-4-yl)amino)pyrimidin-4-yl)-N-(thiazol-2-ylmethyl)-1H-imidazole-4-carboxamide] | 6.60 to 7.00 | 5.60 to 6.30 | < 5.60 | 
11 | Cc1cnc(NC2CCOCC2)nc1-n1cnc(C(=O)NCc2ccccc2CN)c1 [Example 283, N-(2-(aminomethyl)benzyl)-1-(5-methyl-2-((tetrahydro-2H-pyran-4-yl)amino)pyrimidin-4-yl)-1H-imidazole-4-carboxamide] | 5.60 to 6.30 | 5.60 to 6.30 | < 5.60 | 
12 | Cc1cnc(NC2CCOCC2)nc1-n1cnc(C(=O)NCc2sccc2CO)c1 [Example 284, N-((3-(hydroxymethyl)thiophen-2-yl)methyl)-1-(5-methyl-2-((tetrahydro-2H-pyran-4-yl)amino)pyrimidin-4-yl)-1H-imidazole-4-carboxamide] | 5.60 to 6.30 | 6.30 to 6.60 | 5.60 to 6.30 | 
13 | Cc1cnc(NC2CCOCC2)nc1-n1cnc(C(=O)NCc2cccc(Cl)c2CN)c1 [Example 285, N-(2-(aminomethyl)-3-chlorobenzyl)-1-(5-methyl-2-((tetrahydro-2H-pyran-4-yl)amino)pyrimidin-4-yl)-1H-imidazole-4-carboxamide] | ≥ 7.00 | ≥ 7.00 | 6.60 to 7.00 | 
14 | Cc1cnc(NC2CCC(F)(F)CC2)nc1-n1cnc(C(=O)N[C@H](CN)c2cccc(Cl)c2)c1 [Example 286, (S)-N-(2-amino-1-(3-chlorophenyl)ethyl)-1-(2-((4,4-difluorocyclohexyl)amino)-5-methylpyrmidin-4-yl)-1H-imidazole-4-carboxamide] | ≥ 7.00 | ≥ 7.00 | ≥ 7.00 | 
15 | Cc1cnc(NC2CCOCC2)nc1-n1cnc(C(=O)NCc2ccccc2CO)c1 [Example 287, N-(2-(hydroxymethyl)benzyl)-1-(5-methyl-2-((tetrahydro-2H-pyran-4-yl)amino)pyrimidin-4-yl)-1H-imidazole-4-carboxamide] | 5.60 to 6.30 | ≥ 7.00 | 6.30 to 6.60 | 
16 | Cc1cnc(NC2CC(F)(F)C2)nc1-n1cnc(C(=O)N[C@H](CN)c2cc(F)cc(Cl)c2)c1 [Example 288, (S)-N-(2-amino-1-(3-chloro-5-fluorophenyl)ethyl)-1-(2-((3,3-difluorocyclobutyl)amino)-5-methylpyrimidin-4-yl)-1H-imidazole-4-carboxamide] | 6.60 to 7.00 | ≥ 7.00 | ≥ 7.00 | 
17 | Cc1cnc(NC2CCOCC2)nc1-n1cnc(C(=O)N[C@H](CNCc2ccc[nH]2)c2cccc(Cl)c2)c1 [Example 306, (S)-N-(2-(((1H-pyrrol-2-yl)methyl)amino)-1-(3-chlorophenyl)ethyl)-1-(5-methyl-2-((tetrahydro-2H-pyran-4-yl)amino)pyrimidin-4-yl)-1H-imidazole-4-carboxamide] | 6.60 to 7.00 | ≥ 7.00 | ≥ 7.00 | 
18 | Cc1cnc(NC2CCOCC2)nc1-n1cnc(C(=O)N[C@H](CNC2CCOCC2)c2cccc(Cl)c2)c1 [Example 308, (S)-N-(1-(3-chlorophenyl)-2-((tetrahydro-2H-pyran-4-yl)amino)ethyl)-1-(5-methyl-2-((tetrahydro-2H-pyran-4-yl)amino)pyrimidin-4-yl)-1H-imidazole-4-carboxamide] |  | < 5.60 | 6.30 to 6.60 | 5.60 to 6.30
19 | Cc1cnc(NC2CCOCC2)nc1-n1cnc(C(=O)NCc2cccc(Cl)c2F)c1 [Example 309, N-(3-chloro-2-fluorobenzyl)-1-(5-methyl-2-((tetrahydro-2H-pyran-4-yl)amino)pyrimidin-4-yl)-1H-imidazole-4-carboxamide] |  | 6.30 to 6.60 | 5.60 to 6.30 | 5.60 to 6.30
20 | Cc1cnc(N[C@H]2CCOC2)nc1-n1cnc(C(=O)NCc2cccc(C#N)c2)c1 [Example 310, (S)-N-(3-cyanobenzyl)-1-(5-methyl-2-((tetrahydrofuran-3-yl)amino)pyrimidin-4-yl)-1H-imidazole-4-carboxamide] |  | < 5.60 | < 5.60 | < 5.60
